{
  "source": "the supplement of paper PMC10307832",
  "experiment_in_all_cases": "relative viability (nuclei count vs DMSO), 5 days (fraction); higher = more cells survive",
  "key": {"NCI-H1355": {"test_system": "NCI-H1355", "summary_of_the_method": "(§1)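 Relative viability divides the nuclei count in treated wells by that in vehicle wells. Lung cancer cell lines were seeded in 1536-well plates, dosed by pin tool the next day, and fixed and stained after 5 days in one step with final 0.05% Triton X-100, 1% formaldehyde and 1 ug/ml Hoechst. Dosing was a single drug or a fixed anchor-drug dose plus five library-drug doses (not always all listed) in √10 steps, and values are medians of duplicate plates imaged at 4×.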"}, "NCI-H1792": {"test_system": "NCI-H1792", "summary_of_the_method": "as §1"}, "NCI-H1651": {"test_system": "NCI-H1651", "summary_of_the_method": "as §1"}, "NCI-H2347": {"test_system": "NCI-H2347", "summary_of_the_method": "as §1"}, "NCI-H460": {"test_system": "NCI-H460", "summary_of_the_method": "as §1"}, "NCI-H661": {"test_system": "NCI-H661", "summary_of_the_method": "as §1"}, "NCI-H727": {"test_system": "NCI-H727", "summary_of_the_method": "as §1"}, "NCI-H596": {"test_system": "NCI-H596", "summary_of_the_method": "as §1"}, "NCI-H1915": {"test_system": "NCI-H1915", "summary_of_the_method": "as §1"}, "PC-14": {"test_system": "PC-14", "summary_of_the_method": "as §1"}, "SK-MES-1": {"test_system": "SK-MES-1", "summary_of_the_method": "as §1"}},
  "data": [
    {"smiles": "Nc1ccn([C@@H]2O[C@H](CO)[C@@H](O)[C@@H]2O)c(=O)n1", "note": "[Cytarabine] + Nc1ncn([C@H]2C[C@H](O)[C@@H](CO)O2)c(=O)n1 [Decitabine] (partner 2 µM)", "values": [
      {"measurement": "relative viability", "setting": "NCI-H1355; first compound 0.05 µM", "value": 0.337},
      {"measurement": "relative viability", "setting": "NCI-H1355; first compound 0.1581 µM", "value": 0.242},
      {"measurement": "relative viability", "setting": "NCI-H1355; first compound 0.5 µM", "value": 0.255},
      {"measurement": "relative viability", "setting": "NCI-H1792; first compound 0.01581 µM", "value": 0.647},
      {"measurement": "relative viability", "setting": "NCI-H1792; first compound 0.05 µM", "value": 0.387},
      {"measurement": "relative viability", "setting": "NCI-H1792; first compound 0.1581 µM", "value": 0.251},
      {"measurement": "relative viability", "setting": "NCI-H1792; first compound 0.5 µM", "value": 0.205},
      {"measurement": "relative viability", "setting": "NCI-H1651; first compound 0.005 µM", "value": 0.646},
      {"measurement": "relative viability", "setting": "NCI-H1651; first compound 0.01581 µM", "value": 0.493},
      {"measurement": "relative viability", "setting": "NCI-H1651; first compound 0.05 µM", "value": 0.167},
      {"measurement": "relative viability", "setting": "NCI-H1651; first compound 0.1581 µM", "value": 0.281},
      {"measurement": "relative viability", "setting": "NCI-H1651; first compound 0.5 µM", "value": 0.213},
      {"measurement": "relative viability", "setting": "NCI-H2347; first compound 0.005 µM", "value": 0.61},
      {"measurement": "relative viability", "setting": "NCI-H2347; first compound 0.01581 µM", "value": 0.56},
      {"measurement": "relative viability", "setting": "NCI-H2347; first compound 0.05 µM", "value": 0.507},
      {"measurement": "relative viability", "setting": "NCI-H2347; first compound 0.1581 µM", "value": 0.537},
      {"measurement": "relative viability", "setting": "NCI-H2347; first compound 0.5 µM", "value": 0.573},
      {"measurement": "relative viability", "setting": "NCI-H460; first compound 0.005 µM", "value": 0.451},
      {"measurement": "relative viability", "setting": "NCI-H460; first compound 0.01581 µM", "value": 0.406},
      {"measurement": "relative viability", "setting": "NCI-H460; first compound 0.05 µM", "value": 0.336},
      {"measurement": "relative viability", "setting": "NCI-H460; first compound 0.1581 µM", "value": 0.0621},
      {"measurement": "relative viability", "setting": "NCI-H460; first compound 0.5 µM", "value": 0.0458},
      {"measurement": "relative viability", "setting": "NCI-H661; first compound 0.005 µM", "value": 0.556},
      {"measurement": "relative viability", "setting": "NCI-H661; first compound 0.01581 µM", "value": 0.509},
      {"measurement": "relative viability", "setting": "NCI-H661; first compound 0.05 µM", "value": 0.519},
      {"measurement": "relative viability", "setting": "NCI-H661; first compound 0.1581 µM", "value": 0.422},
      {"measurement": "relative viability", "setting": "NCI-H661; first compound 0.5 µM", "value": 0.295},
      {"measurement": "relative viability", "setting": "NCI-H727; first compound 0.005 µM", "value": 0.964},
      {"measurement": "relative viability", "setting": "NCI-H727; first compound 0.01581 µM", "value": 0.713},
      {"measurement": "relative viability", "setting": "NCI-H727; first compound 0.05 µM", "value": 0.443},
      {"measurement": "relative viability", "setting": "NCI-H727; first compound 0.1581 µM", "value": 0.474},
      {"measurement": "relative viability", "setting": "NCI-H727; first compound 0.5 µM", "value": 0.522},
      {"measurement": "relative viability", "setting": "NCI-H596; first compound 0.005 µM", "value": 0.858},
      {"measurement": "relative viability", "setting": "NCI-H596; first compound 0.01581 µM", "value": 0.916},
      {"measurement": "relative viability", "setting": "NCI-H596; first compound 0.05 µM", "value": 0.658},
      {"measurement": "relative viability", "setting": "NCI-H596; first compound 0.1581 µM", "value": 0.581},
      {"measurement": "relative viability", "setting": "NCI-H596; first compound 0.5 µM", "value": 0.767},
      {"measurement": "relative viability", "setting": "NCI-H1915; first compound 0.005 µM", "value": 0.248},
      {"measurement": "relative viability", "setting": "NCI-H1915; first compound 0.01581 µM", "value": 0.289},
      {"measurement": "relative viability", "setting": "NCI-H1915; first compound 0.05 µM", "value": 0.269},
      {"measurement": "relative viability", "setting": "NCI-H1915; first compound 0.1581 µM", "value": 0.231},
      {"measurement": "relative viability", "setting": "NCI-H1915; first compound 0.5 µM", "value": 0.227},
      {"measurement": "relative viability", "setting": "PC-14; first compound 0.005 µM", "value": 0.161},
      {"measurement": "relative viability", "setting": "PC-14; first compound 0.01581 µM", "value": 0.0896},
      {"measurement": "relative viability", "setting": "PC-14; first compound 0.05 µM", "value": 0.114},
      {"measurement": "relative viability", "setting": "PC-14; first compound 0.1581 µM", "value": 0.0408},
      {"measurement": "relative viability", "setting": "PC-14; first compound 0.5 µM", "value": 0.0434},
      {"measurement": "relative viability", "setting": "SK-MES-1; first compound 0.005 µM", "value": 0.29},
      {"measurement": "relative viability", "setting": "SK-MES-1; first compound 0.01581 µM", "value": 0.211},
      {"measurement": "relative viability", "setting": "SK-MES-1; first compound 0.05 µM", "value": 0.205},
      {"measurement": "relative viability", "setting": "SK-MES-1; first compound 0.1581 µM", "value": 0.183},
      {"measurement": "relative viability", "setting": "SK-MES-1; first compound 0.5 µM", "value": 0.155}
    ]}
  ]
}
